Results reported in US10952999B2, “Inhibitor of cyclin-dependent kinase CDK9” (GENFLEET THERAPEUTICS (SHANGHAI) INC., priority 2017, dated 2021).

Tests used:
Test in all cases: Cancer cell growth, Cell Titer-Glo cell viability assay, 72 hours
Assay type in all cases: cell-based
[1] = system: acute myeloid leukemia cell line OCI-AML-2; details: OCI-AML2, 72 hours
Excerpt: (§1) In the examples, we used acute myelocytic leukemia (AML) OCI-AML-3, acute promyelocytic leukemia cell line NB-4, MDS-RAEB (myelodysplastic syndrome-excess blasts type) cell line SKM-1, human leukemia cell Nomo-1, acute myeloid leukemia cell line MOLM14, acute myeloid leukemia cell line MOLM13, acute myeloid leukemia cell line MV4-11, acute myeloid leukemia cell line HL-60, acute myeloid leukemia cell line OCI-AML-2, histiocytic lymphoma U-937, acute B cell leukemia cell line MEC-1, acute B cell leukemia cell line MEC-2, acute megakaryoblastic leukemia CMK, hamster lung cell CHL, hamster ovary cell CHO, human non-small cell lung cancer cell H1975, human non-small cell lung cancer cell H358, human small cell lung cancer cell H209, human lung adenocarcinoma cell H1395, human non-small cell lung cancer cell PC-9, human lung cancer cell H3122, human non-small cell lung cancer cell H2122, human non-small cell lung cancer cell H1915, human lung adenocarcinoma cell H1355, human non-small cell lung cancer cell HCC827, human breast cancer cell MDA-MB-231, human breast cancer cell MDA-MB-468, human breast cancer cell MCF-7, human breast cancer cell T47D, human breast cancer cell SK-Br-3, the above cells were purchased from ATCC.
(§2) Cell Titer-Glo® (Promega, USA) chemical self-luminescence cell viability assay kit was used to detect the number of viable cells by quantitatively measuring ATP in living cells, according to which to calculate GI50 and IC50.

[2] = system: acute myeloid leukemia cell line MV4-11; details: MV4-11, 72 hours
Excerpt: as §1, §2

[3] = system: hamster lung cell CHL; details: CHL, 72 hours
Excerpt: as §1, §2

[4] = system: hamster ovary cell CHO; details: CHO, 72 hours
Excerpt: as §1, §2

[5] = system: MDS-RAEB (myelodysplastic syndrome-excess blasts type) cell line SKM-1; details: SKM-1, 72 hours
Excerpt: as §1, §2

[6] = system: acute megakaryoblastic leukemia CMK
Excerpt: as §1, §2

[7] = system: acute myeloid leukemia cell line MOLM14; details: MOLM-14, 72 hours
Excerpt: as §1, §2

[8] = system: human leukemia cell Nomo-1; details: Nomo-1, 72 hours
Excerpt: as §1, §2

[9] = system: acute B cell leukemia cell line MEC-1; details: MEC-1, 72 hours
Excerpt: as §1, §2

[10] = system: acute myelocytic leukemia (AML) OCI-AML-3; details: OCI-AML3, 72 hours
Excerpt: as §1, §2

[11] = system: histiocytic lymphoma U-937; details: U-937, 72 hours
Excerpt: as §1, §2

[12] = system: acute myeloid leukemia cell line HL-60; details: HL-60, 72 hours
Excerpt: as §1, §2

[13] = system: acute promyelocytic leukemia cell line NB-4; details: NB4, 72 hours
Excerpt: as §1, §2

[14] = system: acute B cell leukemia cell line MEC-2; details: MEC-2, 72 hours
Excerpt: as §1, §2

[15] = system: acute myeloid leukemia cell line MOLM13; details: MOLM-13, 72 hours
Excerpt: as §1, §2

| GI50 [3] [nM] | GI50 [6] [nM] | GI50 [13] [nM] | GI50 ([1]; Homo sapiens) [nM] | GI50 ([2]; Homo sapiens) [nM] | GI50 ([5]; Homo sapiens) [nM] | GI50 ([7]; Homo sapiens) [nM] | GI50 ([8]; Homo sapiens) [nM] | GI50 ([9]; Homo sapiens, MEC1) [nM] | GI50 ([10]; Homo sapiens, OCI-AML-3) [nM] | GI50 ([11]; Homo sapiens) [nM] | GI50 ([12]; Homo sapiens) [nM] | GI50 ([14]; MEC2) [nM] | GI50 ([15]; Homo sapiens) [nM] | SMILES | GI50 [4] [nM] | other results |
| --- | --- | --- | --- | --- | --- | --- | --- | --- | --- | --- | --- | --- | --- | --- | --- | --- |
| 5600 | 1100 | 350 |  |  |  |  |  |  |  |  |  |  |  | COCCN[C@H]1CC[C@H](Nc2cc(-c3csc(SCC4CCOCC4)n3)c(Cl)cn2)CC1 [Compound 17, (1r, 4r)-N^1-(5-chloro-4-(2-(((tetrahydro-2H-pyran-4-yl)methyl)mercapto)thiazol-4-yl)pyridin-2-yl)-N^4-(2-methoxyethyl)cyclohexane-1,4-diamine] | 610 | GI50 [1]: 800 nM; GI50 [2]: 1100 nM; GI50 [5]: 330 nM; GI50 [7]: 360 nM; GI50 [8]: 930 nM; GI50 [9]: 800 nM; GI50 [10]: 980 nM; GI50 [11]: 300 nM; GI50 [12]: 160 nM; GI50 [14]: 700 nM; GI50 [15]: 340 nM |
| 1400 | 1100 | 340 | 600 | 740 | 260 | 330 | 870 | 890 | 420 | 320 | 320 | 660 | 440 | COCCN[C@H]1CC[C@H](Nc2cc(-c3csc(NCC4CC4)n3)c(Cl)cn2)CC1 [Compound 13, (1r,4r)-N^1-(5-chloro-4-(2-((cyclopropylmethyl)amino)thiazol-4-yl)pyridin-2-yl)-N^4-(2-methoxyethyl)cyclohexane-1,4-diamine] | 770 |  |
| 3500 | 370 | 56 | 9100 | 140 | 85 | 140 | 590 | 270 | 140 | 120 | 550 | 140 | 150 | N[C@H]1CC[C@H](Nc2cc(-c3csc(NCC4CCOCC4)n3)c(Cl)cn2)CC1 [Compound 2, (1r,4r)-N^1-(5-chloro-4-(2-(((tetrahydro-2H-pyran-4-yl)methyl)amino)thiazol-4-yl)pyridin-2-yl)cyclohexane-1,4-diamine] | 2800 |  |
| 1900 | 1800 | 700 | 650 | 530 | 750 | 680 | 1300 | 1400 | 1100 | 850 | 420 | 1100 | 1000 | CNc1nc(-c2cc(N[C@H]3CC[C@H](NCCOC)CC3)ncc2Cl)cs1 [Compound 9, (1r,4r)-N^1-(5-chloro-4-(2-(methylamino)thiazol-4-yl)pyridin-2-yl)-N^4-(2-methoxyethyl)cyclohexane-1,4-diamine] | 1200 |  |
| 1200 | 4000 | 1300 | 1100 | 910 | 1100 | 1200 | 3000 | 2500 | 2100 | 1100 | 980 | 1700 | 1200 | COCCN[C@H]1CC[C@H](Nc2cc(-c3csc(NCC4CCOCC4)n3)ccn2)CC1 [Compound 18, (1r,4r)-N^1-(2-methoxyethyl)-N^4-(4-(2-(((tetrahydro-2H-pyran-4-yl)methyl)amino)thiazol-4-yl)pyridin-2-yl)cyclohexane-1,4-diamine] | 4100 |  |
| 3300 | 1400 | 580 | 2100 | 630 | 500 | 620 | 1500 | 1400 | 630 | 600 | 450 | 970 | 570 | COCCN[C@H]1CC[C@H](Nc2cc(-c3csc(OCC4CCOCC4)n3)c(Cl)cn2)CC1 [Compound 16, (1r,4r)-N^1-(5-chloro-4-(2-((tetrahydro-2H-pyran-4-yl)methoxy)thiazol-4-yl)pyridin-2-yl)-N^4-(2-methoxyethyl)cyclohexane-1,4-diamine] | 1300 |  |
| 1100 | 350 | 110 | 120 | 140 | 97 | 110 | 290 | 310 | 150 | 110 | 65 | 130 | 130 | COC[C@@H](C)N[C@H]1CC[C@H](Nc2cc(-c3csc(NCC4CCOCC4)n3)c(Cl)cn2)CC1 [Compound 6, (1R,4r)-N^1-(5-chloro-4-(2-(((tetrahydro-2H-pyran-4-yl)methyl)amino)thiazol-4-yl)pyridin-2-yl)-N^4-((R)-1-methoxypropan-2-yl)cyclohexane-1,4-diamine] | 400 |  |
| 930 | 150 | 220 | 2900 | 550 | 150 | 530 | 1000 | 3600 | 720 | 1400 | 310 | 830 | 200 | O=C(Nc1cc(-c2csc(NCC3CCOCC3)n2)c(Cl)cn1)c1ccc(F)cc1 [Compound 8, N-(5-chloro-4-(2-(((tetrahydro-2H-pyran-4-yl)methyl)amino)thiazol-4-yl)pyridin-2-yl)-4-fluorobenzamide] | 1600 |  |
| 1000 | 470 | 270 | 330 | 330 | 170 | 160 | 960 | 470 | 220 | 220 | 73 | 320 | 280 | COCCN[C@H]1CC[C@H](Nc2cc(-c3csc(NCc4ccccc4)n3)c(Cl)cn2)CC1 [Compound 11, (1r,4r)-N^1-(4-(2-(benzylamino)thiazol-4-yl)-5-chloropyridin-2-yl)-N^4-(2-methoxyethyl)cyclohexane-1,4-diamine] | 370 |  |
| 1100 | 720 | 410 | 410 | 880 | 200 | 310 | 920 | 450 | 390 | 390 | 190 | 480 | 290 | COCCN[C@H]1CC[C@H](Nc2cc(-c3csc(NCc4ccc(F)cc4)n3)c(Cl)cn2)CC1 [Compound 12, (1r,4r)-N^1-(5-chloro-4-(2-((4-fluorobenzyl)amino)thiazol-4-yl)pyridin-2-yl)-N^4-(2-methoxyethyl)cyclohexane-1,4-diamine] | 470 |  |
| 3600 | 1500 | 460 | 470 | 440 | 350 | 490 | 1000 | 1300 | 820 | 430 | 390 | 770 | 640 | COC[C@H](C)N[C@H]1CC[C@H](Nc2cc(-c3csc(NCC4CCOCC4)n3)c(Cl)cn2)CC1 [Compound 5, (1S,4r)-N^1-(5-chloro-4-(2-(((tetrahydro-2H-pyran-4-yl)methyl)amino)thiazol-4-yl)pyridin-2-yl)-N^4-((S)-1-methoxypropan-2-yl)cyclohexane-1,4-diamine] | 1200 |  |
| 180 | 9.9 | 10 | 13 | 7.6 | 10 | 4.5 | 34 | 11 | 11 | 3.6 | 8 | 10 | 3.3 | CCc1cnn2c(NCc3ccc[n+]([O-])c3)cc(N3CCCC[C@H]3CCO)nc12 [Dinaciclib, reference compound] | 160 |  |
